Data published in patent US20120010075A1 (priority 2009, published 2012).

How the values were obtained:
Phytophthora infestans = assay type: in vivo, Phytophthora infestans on tomato; details: hydrazone 50 ppm + 50 μM CuCl2.2H2O, applied 24 h before inoculation, assessed 7 days after inoculation, tomato
[1] = tested on: Leptosphaeria nodorum (LEPTNO); assay: In vitro fungitoxicity of hydrazones with and without copper towards Leptosphaeria nodorum (Example 26); assay type: cell-based; details: compound 0.05 μg/mL, 72 h at 25° C.; for inhibition of growth at 0.05 µg/mL: Parastagonospora nodorum, 72 h, read-out: LEPTNO % Inhn. Minus Copper Observed; for inhibition of growth at 0.05 µg/mL / LEPTNO % Inhn. Minus Copper Observed: copper-minus medium; for LEPTNO % Inhn. Plus Copper Observed: copper-plus medium (CuCl2.2H2O)

O=C(N/N=C/c1ccccc1O)c1ccc(Cl)cc1 [Example 2]
TLB % Control (Phytophthora infestans): 61.4%
inhibition of growth at 0.05 µg/mL [1]: 0%
LEPTNO % Inhn. Plus Copper Observed [1]: 95.1%

O=C(N/N=C/c1c(O)ccc2ccccc12)c1ccccc1 [Example 4]
TLB % Control (Phytophthora infestans): 67.8%
inhibition of growth at 0.05 µg/mL [1]: 4.4%
LEPTNO % Inhn. Plus Copper Observed [1]: 94.5%

O=C(N/N=C/c1cc(Br)ccc1O)c1ccc2c(c1)OCO2 [Example 7]
TLB % Control (Phytophthora infestans): 54.6%
inhibition of growth at 0.05 µg/mL [1]: 2.6%
LEPTNO % Inhn. Plus Copper Observed [1]: 97.2%

Cc1ccc(C(=O)N/N=C/c2ccccc2O)cc1 [Example 8]
TLB % Control (Phytophthora infestans): 59.6%
inhibition of growth at 0.05 µg/mL [1]: 0%
LEPTNO % Inhn. Plus Copper Observed [1]: 92.6%

Cc1ccc([N+](=O)[O-])c(C(=O)N/N=C/c2cc(Cl)cc(Cl)c2O)c1 [Example 9]
TLB % Control (Phytophthora infestans): 67.3%
inhibition of growth at 0.05 µg/mL [1]: 0%
LEPTNO % Inhn. Plus Copper Observed [1]: 93.6%

C/C(=N\NC(=O)c1ccc(C(F)(F)F)cc1)c1ccccc1O [Example 11]
TLB % Control (Phytophthora infestans): 42.1%
inhibition of growth at 0.05 µg/mL [1]: 0.3%
LEPTNO % Inhn. Plus Copper Observed [1]: 97.2%

C/C(=N\NC(=O)c1cccc(I)c1)c1ccccc1O [Example 13]
TLB % Control (Phytophthora infestans): 33.3%
LEPTNO % Inhn. Minus Copper Observed [1]: 0.0%
LEPTNO % Inhn. Plus Copper Observed [1]: 96.2%

CCOc1ccc(C(=O)N/N=C(\C)c2ccccc2O)cc1 [Example 18]
TLB % Control (Phytophthora infestans): 38.6%
inhibition of growth at 0.05 µg/mL [1]: 0%
LEPTNO % Inhn. Plus Copper Observed [1]: 96.9%

O=C(N/N=C/c1cc(Br)ccc1O)c1ccccc1Oc1ccccc1 [Example 19]
TLB % Control (Phytophthora infestans): 25.0%
inhibition of growth at 0.05 µg/mL [1]: 2.9%
LEPTNO % Inhn. Plus Copper Observed [1]: 88.8%

O=C(N/N=C/c1cc(Cl)cc(Cl)c1O)c1ccc(F)cc1 [Example 22]
TLB % Control (Phytophthora infestans): 93.2%
inhibition of growth at 0.05 µg/mL [1]: 16%
LEPTNO % Inhn. Plus Copper Observed [1]: 97.6%

C/C(=N\NC(=O)c1cccc(F)c1)c1ccccc1O [Example 25]
TLB % Control (Phytophthora infestans): 35.1%
inhibition of growth at 0.05 µg/mL [1]: 0%
LEPTNO % Inhn. Plus Copper Observed [1]: 97.3%

C/C(=N\NC(=O)c1cccc(I)c1)c1ccccc1O [Example 26]
TLB % Control (Phytophthora infestans): 12.3%
LEPTNO % Inhn. Minus Copper Observed [1]: 2.1%
LEPTNO % Inhn. Plus Copper Observed [1]: 98.4%

C/C(=N\NC(=O)c1ccc(C)cc1C)c1ccccc1O [Example 29]
TLB % Control (Phytophthora infestans): 50.8%
inhibition of growth at 0.05 µg/mL [1]: 0%
LEPTNO % Inhn. Plus Copper Observed [1]: 98.0%

C/C(=N\NC(=O)c1ccc(C)cc1)c1ccccc1O [Example 36]
TLB % Control (Phytophthora infestans): 33.9%
inhibition of growth at 0.05 µg/mL [1]: 5.9%
LEPTNO % Inhn. Plus Copper Observed [1]: 98.4%

C/C(=N\NC(=O)c1cccc([N+](=O)[O-])c1)c1ccccc1O [Example 37]
TLB % Control (Phytophthora infestans): 33.0%
inhibition of growth at 0.05 µg/mL [1]: 3.3%
LEPTNO % Inhn. Plus Copper Observed [1]: 97.0%

C/C(=N\NC(=O)c1cccc(C)c1)c1ccccc1O [Example 38]
TLB % Control (Phytophthora infestans): 17.0%
inhibition of growth at 0.05 µg/mL [1]: 2.4%
LEPTNO % Inhn. Plus Copper Observed [1]: 98.3%

C/C(=N\NC(=O)c1cc(C)cc(C)c1)c1ccccc1O [Example 39]
TLB % Control (Phytophthora infestans): 18.6%
inhibition of growth at 0.05 µg/mL [1]: 1.3%
LEPTNO % Inhn. Plus Copper Observed [1]: 97.9%

C/C(=N\NC(=O)c1ccc(C(C)C)cc1)c1ccccc1O [Example 40]
TLB % Control (Phytophthora infestans): 64.9%
inhibition of growth at 0.05 µg/mL [1]: 0%
LEPTNO % Inhn. Plus Copper Observed [1]: 94.8%

CC/C(=N\NC(=O)c1ccccc1Cl)c1ccccc1O [Example 50]
TLB % Control (Phytophthora infestans): 43.5%
inhibition of growth at 0.05 µg/mL [1]: 3.5%
LEPTNO % Inhn. Plus Copper Observed [1]: 97.4%

C/C(=N\NC(=O)c1ccccc1N)c1ccccc1O [Example 51]
TLB % Control (Phytophthora infestans): 4.8%
inhibition of growth at 0.05 µg/mL [1]: 0%
LEPTNO % Inhn. Plus Copper Observed [1]: 97.6%

COc1cccc(C(=O)N/N=C(\C)c2ccccc2O)c1 [Example 53]
TLB % Control (Phytophthora infestans): 62.0%
inhibition of growth at 0.05 µg/mL [1]: 0%
LEPTNO % Inhn. Plus Copper Observed [1]: 96.8%

C/C(=N\NC(=O)c1ccc(Cl)cc1)c1ccccc1O [Example 54]
TLB % Control (Phytophthora infestans): 17.0%
inhibition of growth at 0.05 µg/mL [1]: 0%
LEPTNO % Inhn. Plus Copper Observed [1]: 95.7%

C/C(=N\NC(=O)c1ccc(C(C)(C)C)cc1)c1ccccc1O [Example 55]
TLB % Control (Phytophthora infestans): 43.9%
inhibition of growth at 0.05 µg/mL [1]: 0%
LEPTNO % Inhn. Plus Copper Observed [1]: 95.5%

C/C(=N\NC(=O)c1ccc(F)cc1)c1cc(Cl)cc(Cl)c1O [Example 59]
TLB % Control (Phytophthora infestans): 79.7%
inhibition of growth at 0.05 µg/mL [1]: 12.8%
LEPTNO % Inhn. Plus Copper Observed [1]: 97.5%

C/C(=N\NC(=O)c1ccc(F)cc1)c1ccccc1O [Example 62]
TLB % Control (Phytophthora infestans): 56.1%
inhibition of growth at 0.05 µg/mL [1]: 0%
LEPTNO % Inhn. Plus Copper Observed [1]: 96.3%

C/C(=N\NC(=O)c1cccc(Br)c1)c1ccccc1O [Example 63]
TLB % Control (Phytophthora infestans): 40.4%
inhibition of growth at 0.05 µg/mL [1]: 0%
LEPTNO % Inhn. Plus Copper Observed [1]: 96.7%

C/C(=N\NC(=O)c1ccccc1Br)c1ccccc1O [Example 64]
TLB % Control (Phytophthora infestans): 43.0%
inhibition of growth at 0.05 µg/mL [1]: 0%
LEPTNO % Inhn. Plus Copper Observed [1]: 97.8%

C/C(=N\NC(=O)c1cccc(Cl)c1)c1ccccc1O [Example 65]
TLB % Control (Phytophthora infestans): 10.0%
inhibition of growth at 0.05 µg/mL [1]: 0%
LEPTNO % Inhn. Plus Copper Observed [1]: 98.3%

C/C(=N\NC(=O)c1ccccc1C)c1ccccc1O [Example 66]
TLB % Control (Phytophthora infestans): 51.0%
inhibition of growth at 0.05 µg/mL [1]: 0.1%
LEPTNO % Inhn. Plus Copper Observed [1]: 97.4%

O=C(N/N=C/c1cc(Cl)cc(Cl)c1O)c1cccc(Br)c1 [Example 71]
TLB % Control (Phytophthora infestans): 78.0%
inhibition of growth at 0.05 µg/mL [1]: 2.6%
LEPTNO % Inhn. Plus Copper Observed [1]: 91.2%

Cc1ccc(C(=O)N/N=C/c2cc(Cl)cc(Cl)c2O)cc1 [Example 72]
TLB % Control (Phytophthora infestans): 81.3%
inhibition of growth at 0.05 µg/mL [1]: 14.1%
LEPTNO % Inhn. Plus Copper Observed [1]: 91.3%

COc1ccc(C(=O)N/N=C/c2cc(Cl)cc(Cl)c2O)cc1 [Example 75]
TLB % Control (Phytophthora infestans): 15.8%
inhibition of growth at 0.05 µg/mL [1]: 0%
LEPTNO % Inhn. Plus Copper Observed [1]: 98.4%

O=C(N/N=C/c1cc(Cl)cc(Cl)c1O)c1ccc(Cl)cc1Cl [Example 78]
TLB % Control (Phytophthora infestans): 70.9%
inhibition of growth at 0.05 µg/mL [1]: 7.9%
LEPTNO % Inhn. Plus Copper Observed [1]: 96.3%

O=C(N/N=C/c1cc(Cl)cc(Cl)c1O)c1ccc(Br)cc1 [Example 80]
TLB % Control (Phytophthora infestans): 91.5%
inhibition of growth at 0.05 µg/mL [1]: 0%
LEPTNO % Inhn. Plus Copper Observed [1]: 98.4%

COc1cccc(C(=O)N/N=C/c2cc(Cl)cc(Cl)c2O)c1 [Example 82]
TLB % Control (Phytophthora infestans): 60.6%
inhibition of growth at 0.05 µg/mL [1]: 8.4%
LEPTNO % Inhn. Plus Copper Observed [1]: 97.4%

COc1ccc(C(=O)N/N=C/c2cc(Cl)cc(Cl)c2O)cc1OC [Example 85]
TLB % Control (Phytophthora infestans): 51.5%
inhibition of growth at 0.05 µg/mL [1]: 5.3%
LEPTNO % Inhn. Plus Copper Observed [1]: 90.0%

CC(C)(C)c1ccc(C(=O)N/N=C/c2cc(Cl)cc(Cl)c2O)cc1 [Example 87]
TLB % Control (Phytophthora infestans): 69.5%
inhibition of growth at 0.05 µg/mL [1]: 8.1%
LEPTNO % Inhn. Plus Copper Observed [1]: 98.6%

COc1cc(OC)cc(C(=O)N/N=C/c2cc(Cl)cc(Cl)c2O)c1 [Example 88]
TLB % Control (Phytophthora infestans): 4.8%
inhibition of growth at 0.05 µg/mL [1]: 10.7%
LEPTNO % Inhn. Plus Copper Observed [1]: 96.7%

O=C(N/N=C/c1cc(Cl)cc(Cl)c1O)c1cccc(F)c1 [Example 89]
TLB % Control (Phytophthora infestans): 85.8%
inhibition of growth at 0.05 µg/mL [1]: 17.5%
LEPTNO % Inhn. Plus Copper Observed [1]: 95.9%

O=C(N/N=C/c1cc(Cl)cc(Cl)c1O)c1ccccc1Oc1ccccc1 [Example 90]
TLB % Control (Phytophthora infestans): 54.6%
inhibition of growth at 0.05 µg/mL [1]: 9.5%
LEPTNO % Inhn. Plus Copper Observed [1]: 96.4%

O=C(N/N=C/c1cc(Cl)cc(Cl)c1O)c1ccccc1Cl [Example 93]
TLB % Control (Phytophthora infestans): 77.2%
inhibition of growth at 0.05 µg/mL [1]: 6%
LEPTNO % Inhn. Plus Copper Observed [1]: 95.2%

COc1ccccc1C(=O)N/N=C/c1cc(Cl)cc(Cl)c1O [Example 94]
TLB % Control (Phytophthora infestans): 37.0%
inhibition of growth at 0.05 µg/mL [1]: 0%
LEPTNO % Inhn. Plus Copper Observed [1]: 92.9%

Cc1cccc(C(=O)N/N=C/c2cc(Cl)cc(Cl)c2O)c1 [Example 95]
TLB % Control (Phytophthora infestans): 81.2%
inhibition of growth at 0.05 µg/mL [1]: 14.1%
LEPTNO % Inhn. Plus Copper Observed [1]: 94.0%
